Columns and labels:
[1] = tested on: MRSA bacteria; assay: MRSA bacterial growth and biofilm formation in broth tubes, crystal violet stain (Example 1, FIG. 2); format: cell-based, Methicillin-resistant Staphylococcus aureus; conditions: about 5000 CFU/mL, 16-20 hours, 2 mL broth, 35±2° C., CP55,940 and LEA at 30 μm; for MRSA biofilm formation: crystal violet, qualitative
Experimental: (§1) The broth inoculum was prepared from 18-24 hours old colonies grown on standard agar plates. Approximately four of the fresh colonies were swiped with a sterile cotton Q-tip and then suspended in saline by immersion and light swirling. The turbidity was adjusted to equal that of a 0.5 McFarland turbidity standard using a spectrophotometer (600 nm). The amount corresponded to about 1.5×10^8 CFU/mL, where CFU stands for colony-forming units, and is equivalent to an absorbance at 600 nm equal to 0.132 or a percentage transmission equal to 74.3. […] Sterile 4 mL polystyrene tubes (12×75 mm) with caps were used for this purpose.
MRSA bacteria (about 5000 CFU/mL) were allowed to grow for 16-20 hours in 2 mL broth at 35±2° C. in the presence or absence of various experimental compounds or antibiotics. The amount of biofilm was visualized qualitatively after being stained with crystal violet. Biofilm attached to the side of the tube was stained purple. The compounds CP55,940, LEA, and capsaicin were all tested at 30 μm. In the negative control, no compounds were added. The vehicle controls were made up of the appropriate dilution of the different solvent used to dissolve the experimental compounds, including methanol (MeOH), ethanol (EtOH) or dimethylsulfoxide (DMSO). The experimental compounds tested included CP55,940, noladin ether, O-2050, and linoleyl ethanolamide. High concentrations of the antibiotics zeocin and ampicillin served as positive antimicrobial controls. […] The no bacteria group contained only media and no bacteria, and served as another control.

[2] = tested on: gram-positive bacteria, including Streptococcus agalactiae, Enterococcus faecalis, Staphylococcus epidermidis, and prominent MRSA strains; assay: Growth and biofilm formation of gram-positive strains, crystal violet stain quantified at 600 nm (Example 2, FIG. 3); format: cell-based; conditions: 30 μM, overnight, 35±2° C.; for growth of gram-positive bacteria, including MRSA: 2 mL broth; for biofilm formation of gram-positive bacteria, including MRSA: crystal violet stain solubilized, 600 nm
Experimental: as §1, with “efficacy of the compounds were again tested against different strains of gram-positive bacteria, including Streptococcus agalactiae, Enterococcus faecalis, Staphylococcus epidermidis, and prominent MRSA (hospital-acquired and community-acquired) strains. Broth” for “broth”
The bacteria were allowed to incubate overnight in 2 mL broth at 35±2° C. in the presence or absence of various experimental compounds or antibiotics. The amount of biofilm was visualized qualitatively, then stained with crystal violet. Biofilm attached to the side of the tube was stained purple. After staining, the tubes were decanted and rinsed, leaving stained biofilm adhering to the tubes. Next, the stain was solubilized and mixed with ethanol (EtOH) or dimethylsulfoxide (DMSO). The turbidity of the so lubilized stain, or lack thereof, was then quantified in a spectrophotometer (600 nm). In the broth only sample, no bacteria were added. In the negative controls, no compounds were added. The vehicle controls were made up of the appropriate dilution of the different solvent used to dissolve the experimental compounds, including ethanol (EtOH) or dimethylsulfoxide (DMSO). The experimental compounds tested included 30 μM of CP55,940, 30 μM of O-2050, 30 μM of linoleyl ethanolamide, 30 μM of no ladin ether, and 30 μM of anandamide (natural product 2). High concentrations of silver nitrate (1000 μM) and vancomycin (50 μg/mL) served as positive antimicrobial controls.

[3] = target: mammalian CB1 receptors (Homo sapiens, UniProt P21554); conditions: cited from earlier work
[4] = target: mammalian CB2 receptors (Homo sapiens, UniProt P34972); conditions: cited from earlier work
Chain of mammalian CB2 receptors (P34972 whole entry): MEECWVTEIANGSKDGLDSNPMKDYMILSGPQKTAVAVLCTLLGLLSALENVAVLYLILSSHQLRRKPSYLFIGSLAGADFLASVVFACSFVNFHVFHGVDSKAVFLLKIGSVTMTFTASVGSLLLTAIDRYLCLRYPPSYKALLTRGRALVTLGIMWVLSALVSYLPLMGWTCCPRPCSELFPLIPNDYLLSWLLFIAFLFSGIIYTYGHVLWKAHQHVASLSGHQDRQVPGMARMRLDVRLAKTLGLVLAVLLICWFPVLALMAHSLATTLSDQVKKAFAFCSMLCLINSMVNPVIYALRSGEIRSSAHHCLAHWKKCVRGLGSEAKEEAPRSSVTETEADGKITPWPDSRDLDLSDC

Chain of mammalian CB1 receptors (P21554 whole entry): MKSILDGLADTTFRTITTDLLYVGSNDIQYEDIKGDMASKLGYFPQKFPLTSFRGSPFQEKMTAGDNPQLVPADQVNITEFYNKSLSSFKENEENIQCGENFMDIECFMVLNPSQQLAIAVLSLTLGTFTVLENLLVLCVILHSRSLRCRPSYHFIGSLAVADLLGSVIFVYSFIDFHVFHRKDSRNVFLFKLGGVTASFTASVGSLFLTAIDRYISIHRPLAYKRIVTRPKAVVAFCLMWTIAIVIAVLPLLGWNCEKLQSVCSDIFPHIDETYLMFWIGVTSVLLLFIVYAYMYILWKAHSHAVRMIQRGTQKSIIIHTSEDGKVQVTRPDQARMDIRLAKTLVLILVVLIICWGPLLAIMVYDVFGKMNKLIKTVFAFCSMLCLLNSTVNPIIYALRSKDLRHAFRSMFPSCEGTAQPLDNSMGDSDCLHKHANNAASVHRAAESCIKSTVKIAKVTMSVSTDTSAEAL

| SMILES | MRSA growth [1] | MRSA biofilm formation [1] | growth of gram-positive bacteria, including MRSA [2] | biofilm formation of gram-positive bacteria, including MRSA [2] | affinity for CB1 receptor [3] | affinity for CB2 receptor [4] |
| --- | --- | --- | --- | --- | --- | --- |
| CCCCCCC(C)(C)c1ccc([C@@H]2C[C@H](O)CC[C@H]2CCCO)c(O)c1 [CP55,940, (−)-cis-3-[2-Hydroxy-4-(1,1-dimethylheptyl)phenyl]-tran s-4-(3-hydroxypropyl)cyclohexanol] | prevent | prevent | prevent | prevent | high affinity | high affinity |
| CC1=CC[C@@H]2[C@@H](C1)c1c(O)cc(CC#CCCCNS(C)(=O)=O)cc1OC2(C)C [Compound O-2050] | prevent | prevent | prevent | prevent |  |  |
| CN[C@H]1C[C@@H](N)[C@H](O)[C@@H](O[C@@H]2O[C@H](CO)[C@H](O)[C@@H]3OC4(O[C@H]23)O[C@H]([C@@H](N)CO)[C@H](O)[C@H](O)[C@H]4O)[C@@H]1O (stereo partly shown) [Hydromycin B, reference compound] | Relatively ineffective |  |  |  |  |  |
| CCCCC/C=C\C/C=C\CCCCCCCC(=O)NCCO [LEA, N-(2-hydroxyethyl)-9Z,12Z-octadecadienamide] | prevent | prevent | prevent | prevent | poor affinity | poor affinity |
| CCCCC/C=C\C/C=C\C/C=C\C/C=C\CCCCOC(CO)CO [noladin ether, 2-[(5Z,8Z,11Z,14Z)-eicosatetraenyloxy]-1,3-propanediol] | prevent | prevent |  |  |  |  |
